Laboratory results published in PubChem BioAssay AID264 (DTP/NCI, 2004).
“And” between values parts separate entries of the source, which are not always exact repeats. Equal entries are not always repeated. Inconclusive results are not listed.

Tested on: nude mice, LX-1 lung xenograft intrarenal, tumor weight T/C
Test: NCI In Vivo Anticancer Drug Screen. Data for tumor model Human Lung LX-1 Xenograft (intrarenal inoculation) in NU/NU Swiss (nude) mice
Settings: endpoint: mean tumor weight change, higher = larger tumour
In short: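 Tumor-bearing mice receive test compound or vehicle; tumor size is then measured in each group. The treated value is divided by the vehicle value to give T/C.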

[1] = dose: 12.0 mg/kg/injection, schedule: Q04DX003 (sc), vehicle: Klucel (hydroxypropylcellulose) (HPC)
[2] = dose: 24.0 mg/kg/injection, schedule: Q04DX003 (sc), vehicle: Klucel (hydroxypropylcellulose) (HPC)
[3] = dose: 150.0 mg/kg/injection, schedule: Q04DX003 (sc), vehicle: saline
[4] = dose: 300.0 mg/kg/injection, schedule: Q04DX003 (sc), vehicle: saline
[5] = dose: 600.0 mg/kg/injection, schedule: Q04DX003 (sc), vehicle: saline
[6] = dose: 300.0 mg/kg/injection, schedule: Q04DX003 (sc), vehicle: Klucel (hydroxypropylcellulose) (HPC)
[7] = dose: 600.0 mg/kg/injection, schedule: Q04DX003 (sc), vehicle: Klucel (hydroxypropylcellulose) (HPC)
[8] = dose: 1200.0 mg/kg/injection, schedule: Q04DX003 (sc), vehicle: Klucel (hydroxypropylcellulose) (HPC)
[9] = dose: 2400.0 mg/kg/injection, schedule: Q04DX003 (sc), vehicle: Klucel (hydroxypropylcellulose) (HPC)
[10] = dose: 150.0 mg/kg/injection, schedule: Q04DX003 (sc), vehicle: saline with Tween-80
[11] = dose: 600.0 mg/kg/injection, schedule: Q04DX003 (sc), vehicle: saline with Tween-80
[12] = dose: 1200.0 mg/kg/injection, schedule: Q04DX003 (sc), vehicle: saline with Tween-80
[13] = dose: 75.0 mg/kg/injection, schedule: Q04DX003 (sc), vehicle: saline with Tween-80
[14] = dose: 300.0 mg/kg/injection, schedule: Q04DX003 (sc), vehicle: saline with Tween-80
[15] = dose: 12.5 mg/kg/injection, schedule: Q01DX010 (sc), vehicle: Klucel (hydroxypropylcellulose) (HPC)
[16] = dose: 12.5 mg/kg/injection, schedule: Q04DX003 (sc), vehicle: water
[17] = dose: 150.0 mg/kg/injection, schedule: Q04DX003 (sc), vehicle: Klucel (hydroxypropylcellulose) (HPC)
[18] = dose: 50.0 mg/kg/injection, schedule: Q04DX003 (sc), vehicle: saline with Tween-80
[19] = dose: 200.0 mg/kg/injection, schedule: Q04DX003 (sc), vehicle: saline with Tween-80

With CCC[CH2][Sn]1([CH2]CCC)[O]C2C(CO)OC(n3ccc(N)nc3=O)C2[O]1 (configuration not stated) the T/C [1] was 82 % of control, the T/C [2] was 66 % of control and the T/C (dose: 48.0 mg/kg/injection, schedule: Q04DX003 (sc), vehicle: Klucel (hydroxypropylcellulose) (HPC)) was 115 % of control.

In the case of COc1cc(Cc2nccc3cc(OC)c(OC)cc23)c(C(C)=O)cc1OC, the T/C [3] is reported as 87 % of control, the T/C [4] is reported as 88 % of control and the T/C [5] is reported as 99 % of control. For the same compound, the T/C (dose: 1200.0 mg/kg/injection, schedule: Q04DX003 (sc), vehicle: saline) was 87 % of control.

CCN1/C(=C/C=C/C=C/c2sc3ccccc3[n+]2CC)Sc2ccccc21 was tested, and the T/C (dose: 1.5 mg/kg/injection, schedule: Q04DX003 (sc), vehicle: saline) was 57 % of control.

CC(C)(C)C1CCCCC1 was tested, and the T/C [6] was 94 % of control, the T/C [7] was 68 % of control and the T/C [8] was 59 % of control. For the same compound, the T/C [9] was 46 % of control.

O=S(=O)(c1ccccc1)N1CN2CCN(C2)C1 was tested, and the T/C [10] was 195 % of control, the T/C [11] was 106 % of control and the T/C [12] was 156 % of control.

C[Si](C)(C)n1nnn(-c2ccccc2)c1=O was tested, and the T/C [13] was 94 % of control, the T/C [10] was 105 % of control and the T/C [14] was 107 % of control.

With CC1CCC(NC(=O)N(CCCl)N=O)CC1 (configuration not stated) the T/C (dose: 6.25 mg/kg/injection, schedule: Q01DX010 (sc), vehicle: Klucel (hydroxypropylcellulose) (HPC)) was 34 % of control and the T/C [15] was 5 % of control.

In the case of COc1ccc(-c2csc(=[N+]3CCCCC3)s2)cc1, the T/C (dose: 1.56 mg/kg/injection, schedule: Q04DX003 (sc), vehicle: water) is reported as 91 % of control, the T/C (dose: 3.12 mg/kg/injection, schedule: Q04DX003 (sc), vehicle: water) is reported as 84 % of control and the T/C (dose: 6.25 mg/kg/injection, schedule: Q04DX003 (sc), vehicle: water) is reported as 72 % of control. For the same compound, the T/C [16] was 80 % of control.

For O=CC(=O)c1ccc(O)cc1, the T/C [3] was 51 % of control, the T/C [4] was 49 % of control and the T/C [5] was 58 % of control.

For Cc1ncc([N+](=O)[O-])n1CCSC(N)=O, the T/C (dose: 50.0 mg/kg/injection, schedule: Q01DX010 (sc), vehicle: saline with Tween-80) was 90 % of control.

In the case of Cc1cn(C2CC(F)C(CO)O2)c(=O)[nH]c1=O (configuration not stated), the T/C (dose: 150.0 mg/kg/injection, schedule: Q04DX003 (sc), vehicle: suspension in saline) is reported as 54 % of control, the T/C (dose: 300.0 mg/kg/injection, schedule: Q04DX003 (sc), vehicle: suspension in saline) is reported as 85 % of control and the T/C (dose: 600.0 mg/kg/injection, schedule: Q04DX003 (sc), vehicle: suspension in saline) is reported as 56 % of control. The T/C (dose: 1200.0 mg/kg/injection, schedule: Q04DX003 (sc), vehicle: suspension in saline) was 37 % of control.

For N=[N+]=CC(=O)OCC(N)C(=O)O (configuration not stated), the T/C (dose: 12.5 mg/kg/injection, schedule: Q01DX010 (sc), vehicle: saline) was 101 % of control.

With N/C(=N\OC(=O)Nc1ccc(CSc2ccc(Cl)cc2)o1)c1ccccn1 the T/C (dose: 75.0 mg/kg/injection, schedule: Q04DX003 (sc), vehicle: Klucel (hydroxypropylcellulose) (HPC)) was 69 % of control, the T/C [17] was 66 % of control and the T/C [6] was 180 % of control.

With Cc1ccccc1SSc1ccccc1C the T/C (dose: 200.0 mg/kg/injection, schedule: Q01DX010 (sc), vehicle: saline with Tween-80) was 268 % of control and the T/C (dose: 400.0 mg/kg/injection, schedule: Q01DX010 (sc), vehicle: saline with Tween-80) was 99 % of control.

With [N-]=[N+]=C1N=CN=C1c1ncn[nH]1 the T/C [15] was 153 % of control and the T/C (dose: 50.0 mg/kg/injection, schedule: Q01DX010 (sc), vehicle: Klucel (hydroxypropylcellulose) (HPC)) was 55 % of control.

With COC(=O)Nc1nc2ccc(SC)cc2c(=O)[nH]1 the T/C [6] was 93 % of control, the T/C [7] was 93 % of control and the T/C [8] was 95 % of control. The T/C [9] was 92 % of control.

In the case of NC1=NCN(C2OC(CO)C(O)C2O)C(=O)N1 (configuration not stated), the T/C (dose: 25.0 mg/kg/injection, schedule: Q01DX010 (sc), vehicle: saline) is reported as 117 % of control, the T/C (dose: 50.0 mg/kg/injection, schedule: Q01DX010 (sc), vehicle: saline) is reported as 174 % of control and the T/C (dose: 83.3 mg/kg/injection, schedule: Q04DX003 (ip), vehicle: saline) is reported as 117 % of control. The T/C (dose: 100.0 mg/kg/injection, schedule: Q01DX010 (ip), vehicle: saline) was 62 % of control, the T/C (dose: 100.0 mg/kg/injection, schedule: Q01DX010 (sc), vehicle: saline) was 86 % of control and the T/C (dose: 166.66 mg/kg/injection, schedule: Q04DX003 (ip), vehicle: saline) was 89 % of control. The T/C (dose: 333.33 mg/kg/injection, schedule: Q04DX003 (ip), vehicle: saline) was 56 % of control and the T/C (dose: 666.65 mg/kg/injection, schedule: Q04DX003 (ip), vehicle: saline) was 39 % of control.

With C[C@]12CCC(=O)C=C1CC[C@@H]1[C@@H]2[C@@H](O)C[C@@]2(C)[C@H]1CC[C@]2(O)C(=O)CO the T/C [6] was 40 % of control.

In the case of COc1cc(OC)c(NC(=O)ON2C(=O)c3ccccc3C2=O)cc1Cl, the T/C (dose: 25.0 mg/kg/injection, schedule: Q04DX003 (sc), vehicle: saline with Tween-80) is reported as 93 % of control, the T/C [18] is reported as 79 % of control and the T/C (dose: 100.0 mg/kg/injection, schedule: Q04DX003 (sc), vehicle: saline with Tween-80) is reported as 68 % of control. The T/C [19] was 92 % of control.

For CC1(C)CC(=O)C(CSC(=O)c2ccccc2)C(=O)C1, the T/C [17] was 102 % of control and the T/C [6] was 119 % of control.

For Cn1c2nc(=O)n(-c3ccccc3)c(=O)c-2nc2c1CCCC2, the T/C [13] was 71 % of control and the T/C [10] was 101 % of control.

COc1cccc2c1C(=O)c1c(O)c3c(c(O)c1C2=O)CC(O)(/C(C)=N/NC(=O)CCCCC(=O)N/N=C(\C)C1(O)Cc2c(O)c4c(c(O)c2C(OC2CC(N)C(O)C(C)O2)C1)C(=O)c1c(OC)cccc1C4=O)CC3OC1CC(N)C(O)C(C)O1 (configuration not stated) was tested, and the T/C [16] was 28 % of control and the T/C (dose: 100.0 mg/kg/injection, schedule: Q04DX003 (sc), vehicle: water) was 19 % of control.

In the case of CC1CC(C)CC(C)C(O)/C(C#N)=C/C=C/CC(C2CCCC2C(=O)O)OC(=O)CC(O)C(C)C1 (configuration not stated), the T/C (dose: 6.0 mg/kg/injection, schedule: Q04DX003 (sc), vehicle: Klucel (hydroxypropylcellulose) (HPC)) is reported as 117 % of control, the T/C [1] is reported as 58 % of control and the T/C [2] is reported as 48 % of control.

In the case of CCCCCC#CC1OC12CCCCC2 (configuration not stated), the T/C [14] is reported as 97 % of control, the T/C [11] is reported as 93 % of control and the T/C [12] is reported as 60 % of control. The T/C (dose: 2400.0 mg/kg/injection, schedule: Q04DX003 (sc), vehicle: saline with Tween-80) was 79 % of control.

In the case of COC(C(=O)C(O)C(C)O)C1Cc2cc3cc(OC4CC(OC(C)=O)C(OC5CC(O)C(OC)C(C)O5)C(C)O4)cc(O)c3c(O)c2C(=O)C1OC1CC(OC2CC(OC3CC(C)(O)C(OC(=O)C(C)C)C(C)O3)C(O)C(C)O2)C(O)C(C)O1 (configuration not stated), the T/C (dose: 1.0 mg/kg/injection, schedule: Q04DX003 (sc), vehicle: saline with Tween-80) is reported as 77 % of control, the T/C (dose: 2.0 mg/kg/injection, schedule: Q04DX003 (sc), vehicle: saline with Tween-80) is reported as 58 % of control and the T/C (dose: 4.0 mg/kg/injection, schedule: Q01DX010 (sc), vehicle: saline with Tween-80) is reported as 12 % of control and 30 % of control. The T/C (dose: 4.0 mg/kg/injection, schedule: Q04DX003 (sc), vehicle: saline with Tween-80) was 50 % of control.

For O=NN(CCCl)C(=O)NC1CCC(=O)NC1=O (configuration not stated), the T/C (dose: 1.56 mg/kg/injection, schedule: Q01DX010 (ip), vehicle: saline with Tween-80) was 29 % of control, the T/C (dose: 3.13 mg/kg/injection, schedule: Q01DX010 (ip), vehicle: saline with Tween-80) was 3 % of control and the T/C (dose: 3.13 mg/kg/injection, schedule: Q01DX010 (sc), vehicle: saline with Tween-80) was 10 % of control. For the same compound, the T/C (dose: 5.2 mg/kg/injection, schedule: Q04DX003 (ip), vehicle: saline with Tween-80) was 5 % of control, the T/C (dose: 6.25 mg/kg/injection, schedule: Q01DX010 (ip), vehicle: saline with Tween-80) was -74 % of control and the T/C (dose: 10.4 mg/kg/injection, schedule: Q04DX003 (ip), vehicle: saline with Tween-80) was -94 % of control.

In the case of C=C(C)C(=NC(C)(C)C)Nc1ccccc1, the T/C [18] is reported as 62 % of control and the T/C [19] is reported as 34 % of control.
